According to patent publication US20220362340A1, “COMPOSITIONS AND USES THEREOF FOR TREATING IRRADIATION-INDUCED INTESTINAL DAMAGE” (UNIVERSITY OF PITTSBURGH-OF THE COMMONWEALTH SYSTEM OF …, priority 2019, published 2022):
Entries after “also recorded” stand apart in the source; their conditions may differ.

B1: G-CSF: Granulocyte colony-stimulating factor polypeptide, irradiation mitigator (protein, listed as Homo sapiens)
chain: MAGPATQSPMKLMALQLLLWHSALWTVQEATPLGPASSLPQSFLLKCLEQVRKIQGDGAALQEKLVSECATYKLCHPEELVLLGHSLGIPWAPLSSCPSQALQLAGCLSQLHSGLFLYQGLLQALEGISPELGPTLDTLQLDVADFATTIWQQMEELGMAPALQPTQGAMPAFASAFQRRAGGVLVASHLQSFLEVSYRVLRHLAQP

What was measured:
[1] = test system: C57BL/6NTac mice irradiated to 9.25 Gy total body irradiation; assay: Survival after 9.25 Gy total body irradiation (TBI); type: in vivo, mouse; conditions: 9.25 Gy TBI; for 30 days survival: JP4-039 20 mg/kg I.M., G-CSF 4 mg/kg I.P. at 24 h, n=10, irradiated controls 20%; for survival at 30 days after TBI: treatment 24 hrs later, FIG. 7, irradiated control 10%
From the text: Mice and Animal Care. Female C57BL/6NTac (Taconic Biosciences, Wayne, Pa.) and C57BL/6 lgr5+ green fluorescent protein tagged (5-6) lgr5+ mice were housed 5 per cage and fed standard laboratory chow and deionized drinking water according to University of Pittsburgh IACUC regulations.
Irradiation. Total body irradiation was delivered with a cesium-137 Gamma Cell irradiator with filters removed at a dose rate of […], beam flatness, homogeneity, and analysis of spectrum of gamma ray precise dosimetry were carried out. Mice were irradiated in a plexiglass pie plate that contains 12 sections. Five mice were placed in each pie plate. The mice were not placed in adjacent sections, but had one or two empty sections between mice so that the mice would not shield the other mice in the pie plate. Thermoluminescent (TLD) readings according to published methods. [Steinman J, et al., Improved total- body irradiation survival by delivery of two radiation mitigators that target distinct cell death pathways. Radiat Res 189(1): 68-83, 2018.]
Dose Response Curve of Number of Gavaged Lactobacillus-reuteri, or E. coli Producing IL-22 or IFN-β. Mice were irradiated to 9.25 Gy TBI, which took 13-14 minutes, and were then 24 h later gavaged with 100 μL saline solution containing Lactobacillus reuteri-IL-22, or E. coli-IL-22, or at 48 hrs post irradiation E. coli-IFN-β (based on the known time of requirement for IFN-β by lgr5+ cells at this time). All groups of mice received 100 μL saline, which contained varying numbers of bacteria ranging from 10^9, 10^8, 10^7, to 10^6 bacteria (n=10 animals per group).
Administration of Small Molecule Radiation Mitigator, IL-22 Protein, L. reuteri Lacking IL-22, or Gavaged Fecal Microbiome. As a control for probiotic mitigators, the GS-nitroxide, JP4-039 [Rwigema J -CM, et al., Two strategies for the development of mitochondrial-targeted small molecule radiation damage mitigators. Int J Radiat Oncol Biol Phys 80(3): 860-868, 2011], was prepared and administered according to published methods, I.M. at 20 mg/kg in 50 μL of 30% cyclodextrin aqueous [Epperly M W, et al., Evaluations of different formulations and routes for the delivery of the ionizing radiation mitigation GS-nitroxide (JP4-039). In Vivo 32: 1009-1023, 2018]. Cyclodextrin alone has no radiomitigative effect. […]
10^9 L. reuteri lacking IL-22 was administered in 100 μl/saline. A similar number of bacteria from feces obtained from 30-day survivors of 9.25 Gy TBI was gavaged. Fecal microbiome transplant (FMT) was carried out by delivery by gavage in 100 μL saline; 10^9 bacteria from the feces of 30-day survivors of 9.25 Gy TBI of C57BL/6 female mice.
C57BL/6NTac mice were irradiated to 9.25 Gy total body irradiation and gavaged with Lactobacillus reuteri-IL-22 or Lactobacillus reuteri harboring the empty vector control. […]
To determine whether successful radiation mitigation correlated with changes in the intestinal microbiome, groups of mice received 9.25 Gy total body irradiation (TBI) and subgroups treated with the small molecule radiation mitigator, JP4-039 (20 mg/kg in 50 microliters of 30% 2-hydroxypropyl-β-cyclodextrin I.M.), G-CSF (4 mg/kg I.P.), or both mitigators at 24 h after TBI. Fecal pellets were analyzed pre-irradiation, and at days 1, 3, 5, 7, 10, 14, 21, and 30 after irradiation. […]

[2] = test system: IL-22; assay: Intestinal level of IL-22 after TBI; type: in vivo, mouse; conditions: 9.25 Gy TBI; treatment at 24 h; FIG. 17A

Row | Molecule | 30 days survival [1] [%] | survival at 30 days after TBI [1] [%] | intestinal level of IL-22 after TBI [2] | survival compared to irradiation only mice ([1]; treatment 24 hr after, IL-22 protein 0.1 mg/kg I.M., FIG. 9)
1 | CC(C)C[C@@H](/C=C/CC(=O)NC1CC(C)(C)N([O])C(C)(C)C1)NC(=O)OC(C)(C)C [JP4-039] | 50 | 70 | restored IL-22 levels | 
2 | IL-22 protein: recombinant IL-22 protein injected as control |  | 40 |  | significantly increased survival; also recorded: significantly improved survival
3 | B1 | 70 |  |  | 
